For one compound, polymorphic form stability results are on record in patent publication US20170137433A1, “CRYSTALLINE, ANHYDROUS FORMS OF OXYMORPHONE HYDROCHLORIDE” (Endo Pharmaceuticals Inc., priority 2011, published 2017).

Structures can show the parent of a compound that is named as a salt.

The series can be described thus: Solid-form stability of the polymorph (heat treatment / storage observation). The series is classed as physicochemical. To be noted: at room temperature and at elevated temperatures; solid form obtained by heating at 200° C. for 3-4 hours in a drying oven. How it is done:
This polymorph was obtained by a heat treatment of either the above-described polymorph mixture or of oxymorphone hydrochloride monohydrate at 200° C. for a period of 3-4 hours in a drying oven.

For the compound `CN1CC[C@]23c4c5ccc(O)c4O[C@H]2C(=O)CC[C@@]3(O)[C@H]1C5` [second polymorph, crystalline, anhydrous hydrochloride salt of 4,5α-epoxy-3,14-dihydroxy-17-methylmorphinan-6-one], the polymorphic form stability result is “stable at room temperature and at elevated temperatures”.
